# Test results reported in article PMC8473062, “Stability and Safety of Inhibitor Cystine Knot Peptide, GTx1-15, from the Tarantula Spider Grammostola rosea” (Toxins, 2021).
# Like-named read-outs stand apart in the source and are kept apart here.
# Assays:
# [1] = cited from earlier work; for degradation after thermal incubation: 24 h
# Method: Cyclotides are cystine-knotted peptides in which the N- and C-termini are cyclized. Kalata B1 is a well-known cyclotide that consists of 29 amino acids and is not degraded after heating to temperatures approaching boiling. The insecticidal spider toxin ω-hexatoxin-Hv1a is an ICK peptide whose thermal stability has been investigated. After incubating it for 24 h at 50 °C, 75 °C or 95 °C, ω-hexatoxin-Hv1a is degraded about 20%, 30% and 90%, respectively. In contrast, GTx1-15 degraded only 30% after a 24-h incubation at 95 °C.
# [2] = Protein thermal shift assay; format: physicochemical; conditions: Protein Thermal Shift kit, heated 25 to 99 °C at 1 °C/min
# Method: The protein thermal shift assay was conducted with the StepOne Real-Time PCR System (Thermo Fisher Scientific) using the Protein Thermal Shift Assay Kit according to the manufacturer’s instructions with Protein Thermal Shift Software version 1. The protein melt reaction mix was added to the wells of a 48-well PCR plate. The plate was heated from 25 to 99 °C with a heating rate of 1 °C/min. The software allows the user to calculate a melting temperature (Tm) from their melt curve data using the Boltzmann equation (Tm B).
# [3] = cited from earlier work
# Method: We previously reported that ProTxII (an ICK peptide) remains in circulation for over 4 h. Similar to those results, GTx1-15 retains an effective concentration in circulation for over several hours.
# THP-1 cells = assay: Antigenicity assay (CD80, CD86, CD54 expression by real-time PCR); conditions: positive control 4 μg/mL, 24 h exposure, RT-PCR, one range for the three genes
# Method: THP-1 cells were cultured as described above. For antigenicity assays, 2.4 × 10^6 THP-1 cells were inoculated into single wells of a 12-well plate with 1.2 mL RPMI-1640 medium. […] As a negative control, RPMI-1640 was added. After a 24-h incubation, THP-1 cells were collected via centrifugation at 1000× g for 5 min, and then total RNA was extracted from cells using an RNeasy Mini Kit (QIAGEN, Hilden, Germany) according to the manufacturer’s instructions. Total RNA was treated with DNase (QIAGEN) for 10 min to digest contaminating genomic DNA and purified by an RNeasy MinElute Cleanup Kit (QIAGEN). Complementary DNA was synthesized with PrimeScript Reverse Transcriptase (Takara Bio) with an oligo (dT)12-18 primer (Invitrogen, Waltham, USA), 10 mM each dNTP mixture (Promega, Madison, USA), and RNase Inhibitor (Takara Bio). Real-time PCR mixtures were prepared with SYBR Premix Ex Taq (Takara Bio) according to the manufacturer’s instructions. […] Primers for real-time PCR were designed using Roche ProbeFinder version 2.45 (http://qpcr.probefinder.com/roche3.html. This site is stopped at the end of 2020).
compound,measurement,setting,value
ω-hexatoxin-Hv1a,degradation after thermal incubation,[1]; 50 °C,about 20%
same,degradation after thermal incubation,[1]; 75 °C,~30%
same,degradation after thermal incubation,[1]; 95 °C,~90%
GsMTx4,Tm B (Boltzmann melting temperature),[2],95.26 ± 0.10 °C
ProTxII: ICK peptide compared in the protein thermal shift assay,Tm B (Boltzmann melting temperature),[2],93.95 ± 0.12 °C
same,time remaining in circulation,[3],over 4 h
"ProTxI: ICK peptide compared in the protein thermal shift assay (ECRYWLGGCSAGQTCCKHLVCSRRHGWCVWDGTFS; UniProt P83480 1-35, looked up)",Tm B (Boltzmann melting temperature),[2],93.23 ± 0.12 °C
"Kalata B1: well-known cyclotide of 29 amino acids; cystine-knotted peptide with N- and C-termini cyclized (cyclo(GLPVCGETCVGGTCNTPGCTCSWPVCTRN); disulfide (positions not given here); also: cystine-knotted (disulfide places not given here); UniProt P56254 89-117, looked up)",degradation after heating,[1]; heating to temperatures approaching boiling,not degraded
"O=[N+]([O-])c1ccc(Cl)c([N+](=O)[O-])c1 [DNCB, 2,4-Dinitrochlorobenzene]","increase in expression of CD80, CD86 and CD54 genes",THP-1 cells,20–70 times
